Holding throughout (format): functional, cell-based
Assay [1] deals with Cortical neurone. Put plainly: Neuroplasticity effect in Wistar rat brain cortical neuron assessed as neurite outgrowth by measuring increase in neurite length at <=10 uM incubated for 72 hrs by DAPI staining based imaging analysis.
In assay [2] the test system is Cortical neurone. Nature of the assay: Neuroplasticity effect in Wistar rat brain cortical neuron assessed as neurite outgrowth by measuring increase in neurite number at <=10 uM incubated for 72 hrs by DAPI staining based imaging analysis.
The subject of assay [3] is Cortical neurone. Nature of the assay: Neuroplasticity effect in Wistar rat brain cortical neuron assessed as neurite outgrowth by measuring increase in neurite branching at <=10 uM incubated for 72 hrs by DAPI staining based imaging analysis.

SMILES strings stand for the structures. The source made the active and inactive calls. No cut-off for these calls is given here.

In the case of `FC(F)(F)CN1CCc2sc3ccccc3c2CC1`, the outcome with Cortical neurone [1] and in the assay with Cortical neurone [3] was Active. The outcome in the assay on Cortical neurone [2] was inactive.
As for `Fc1cccc2oc3c(c12)CN(C1CCC1)CCC3`, the result in the assay on Cortical neurone [1], in the assay on Cortical neurone [2] and in the assay with Cortical neurone [3] was Active.
For `COc1cccc2oc3c(c12)CCNCC3`, the outcome with Cortical neurone [1], in the assay with Cortical neurone [2] and in the assay with Cortical neurone [3] was inactive.
As for `COc1ccc2c3c(oc2c1)CCCN(CC(F)(F)F)C3`, the outcome in the assay with Cortical neurone [1], in the assay on Cortical neurone [2] and in the assay with Cortical neurone [3] was Active.
For `Fc1cccc2oc3c(c12)CN(CC(F)(F)F)CCC3`, the result in the assay on Cortical neurone [1], with Cortical neurone [2] and in the assay with Cortical neurone [3] was Active.
As for `CN1CCCc2oc3cccc(F)c3c2C1`, the result with Cortical neurone [1], in the assay on Cortical neurone [2] and in the assay on Cortical neurone [3] was Active.
Regarding `Fc1cccc2oc3c(c12)CCN(C1CCC1)CC3`, the outcome in the assay on Cortical neurone [1] and with Cortical neurone [2] was Active. Also, the result with Cortical neurone [3] was inactive.
Consider `COc1ccc2c3c(oc2c1)CCCN(C)C3`, for which the result with Cortical neurone [1], with Cortical neurone [2] and in the assay on Cortical neurone [3] was Active.
As to `FC(F)(F)Oc1cccc2sc3c(c12)CCN(C1CCC1)CC3`, the result in the assay on Cortical neurone [1], in the assay on Cortical neurone [2] and in the assay on Cortical neurone [3] was Active.
With `Fc1ccc2c3c(oc2c1)CCCNC3`, the result in the assay on Cortical neurone [1], with Cortical neurone [2] and in the assay on Cortical neurone [3] was Active.
Turning to `COc1ccc2c3c(oc2c1)CCCN(C1CCC1)C3`, the result with Cortical neurone [1], with Cortical neurone [2] and with Cortical neurone [3] was Active.
For the compound `COc1cccc2oc3c(c12)CCN(C1CCC1)CC3`, the outcome with Cortical neurone [1], with Cortical neurone [2] and with Cortical neurone [3] was Active.
On to `COc1ccc2c3c(sc2c1)CCNCC3`, for which the outcome in the assay on Cortical neurone [1], in the assay with Cortical neurone [2] and in the assay with Cortical neurone [3] was Active.
As for `CN1CCc2oc3cccc(F)c3c2CC1`, the result with Cortical neurone [1] and with Cortical neurone [3] was Active. The outcome with Cortical neurone [2] was inactive.
Regarding `COc1cccc2oc3c(c12)CN(C1CCC1)CCC3`, the result with Cortical neurone [1], in the assay with Cortical neurone [2] and with Cortical neurone [3] was inactive.

The record behind these values is ChEMBL document CHEMBL5584282, “The New Frontier in Neurotherapeutics: From Brain Stimulation to Novel Psychotropics” (ACS Med Chem Lett, 2024).
